One series concerns the target T1, human 15-LO (Homo sapiens, UniProt P16050).
T1 sequence (P16050 1-662): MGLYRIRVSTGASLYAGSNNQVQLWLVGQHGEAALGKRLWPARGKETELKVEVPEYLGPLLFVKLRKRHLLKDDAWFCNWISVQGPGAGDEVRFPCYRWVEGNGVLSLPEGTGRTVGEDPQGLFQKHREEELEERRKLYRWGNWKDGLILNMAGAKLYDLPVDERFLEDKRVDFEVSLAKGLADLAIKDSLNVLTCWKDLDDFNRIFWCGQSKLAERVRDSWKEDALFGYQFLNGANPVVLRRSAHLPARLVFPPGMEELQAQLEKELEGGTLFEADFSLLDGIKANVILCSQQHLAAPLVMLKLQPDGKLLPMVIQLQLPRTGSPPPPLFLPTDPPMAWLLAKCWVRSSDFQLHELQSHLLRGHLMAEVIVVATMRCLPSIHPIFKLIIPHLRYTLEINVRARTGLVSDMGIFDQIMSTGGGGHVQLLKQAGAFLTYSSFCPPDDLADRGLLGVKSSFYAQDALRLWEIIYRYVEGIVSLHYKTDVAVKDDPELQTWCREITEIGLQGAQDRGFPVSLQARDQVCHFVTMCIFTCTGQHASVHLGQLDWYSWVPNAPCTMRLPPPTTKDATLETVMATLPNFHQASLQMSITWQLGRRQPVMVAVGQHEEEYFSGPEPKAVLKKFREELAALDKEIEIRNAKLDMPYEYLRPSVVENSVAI
Description: 15-LO inhibition, human enzyme. It is filed as biochemical. The note with it: linoleic acid as substrate; for inhibition at 10 µM: at 10 micromolar. The method, then:
(§1) The compounds described above are effective inhibitors of 15-LO when evaluated in standard assays routinely utilized to measure 15-LO activity. Specifically, representative compounds were evaluated by the methods described by Auerbach et al., Analytical Biochemistry, 1992;201:375-380. Two in vitro assays were utilized, one utilizing rabbit reticulocyte 15-LO, the other using human 15-LO. Both used linoleic acid as substrate, to enzymatically produce a peroxide oxidation product known as 13(S)-HPODE. N-Benzoyl leucomethylene blue was utilized as a colorimetric reagent for detection and quantification of the peroxide formation. Also, HPLC was utilized to quantify the oxidation following incubation at 4° C. for 10 minutes.
(§2) Data Column 1 gives the concentration of compound required to inhibit 50% of the activity of 15-LO (IC50) when measured by the HPLC method of Auerbach et al. using rabbit enzymes, and data Column 2 gives data from human 15-LO enzyme.

Series [1] addresses T2, rabbit reticulocyte 15-LO (Oryctolagus cuniculus, UniProt P12530).
T2 construct: one utilizing rabbit reticulocyte 15-LO; from tissue; host or cells: rabbit reticulocytes
T2 sequence (P12530 1-663): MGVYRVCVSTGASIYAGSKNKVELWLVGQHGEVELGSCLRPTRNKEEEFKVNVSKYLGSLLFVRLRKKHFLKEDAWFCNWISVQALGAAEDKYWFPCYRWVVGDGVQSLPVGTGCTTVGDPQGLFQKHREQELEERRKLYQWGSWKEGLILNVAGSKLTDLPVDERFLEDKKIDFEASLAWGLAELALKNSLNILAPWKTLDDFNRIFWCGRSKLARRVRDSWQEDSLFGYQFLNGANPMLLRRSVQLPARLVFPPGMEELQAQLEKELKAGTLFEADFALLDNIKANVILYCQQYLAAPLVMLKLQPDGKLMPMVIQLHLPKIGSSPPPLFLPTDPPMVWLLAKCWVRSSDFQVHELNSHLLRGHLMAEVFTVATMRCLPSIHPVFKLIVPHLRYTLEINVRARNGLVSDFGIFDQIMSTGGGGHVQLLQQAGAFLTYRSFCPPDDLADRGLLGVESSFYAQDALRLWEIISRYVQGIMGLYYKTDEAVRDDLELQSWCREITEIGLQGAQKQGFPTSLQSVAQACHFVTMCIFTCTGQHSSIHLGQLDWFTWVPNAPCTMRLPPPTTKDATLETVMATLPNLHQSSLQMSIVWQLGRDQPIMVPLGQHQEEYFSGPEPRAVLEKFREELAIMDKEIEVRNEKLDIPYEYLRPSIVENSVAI
Nature of the series: 15-LO inhibition, rabbit reticulocyte enzyme (HPLC method of Auerbach et al.). It counts as biochemical. The conditions noted are these: linoleic acid as substrate, incubation at 4° C. for 10 minutes. The method, then:
as §1, §2

SMILES strings stand for the structures.

The compound `COc1ccc(-c2cc3cc(F)c(F)cc3[nH]2)cc1NC(=S)NCCO` [Example 37, 1-[5-(5,6-Difluoro-1H-indol-2-yl)-2-methoxy-phenyl]-3-(2-hydroxy-ethyl)-thiourea] displayed a melting point of 191 to 193 °C. This compound showed an IC50 at human 15-LO of 33 nM. The same compound displayed an IC50 in series [1] of 45 nM.
In turn, `COc1ccc(-c2cc3cc(Cl)c(Cl)cc3[nH]2)cc1NC(=S)Nc1cccc(C(=O)O)c1` [Example 19, 3-{3-[5-(5,6-Dichloro-1H-indol-2-yl)-2-methoxy-phenyl]-thioureido}-benzoic acid] yielded a melting point of 216 to 218 °C. Moreover, the IC50 against human 15-LO was 254 nM. In series [1], this compound displayed an IC50 of 13 nM.
As for `COc1ccc(-c2nc3cc(Cl)c(Cl)cc3n2C(=O)OCc2ccccc2)cc1NS(=O)(=O)c1cccs1` [Example 10, 5,6-Dichloro-2-[4-methoxy-3-(thiophene-2-sulfonylamino)-phenyl]-benzoimidazole-1-carboxylic acid benzyl ester], the melting point is 195 to 198 °C. Also, the inhibition at 10 µM against human 15-LO was 81%. Moreover, half-maximal inhibition in series [1] (IC50) was put at 1390 nM.
Take `COc1ccc(-c2cc3cc(F)c(F)cc3[nH]2)cc1NS(=O)(=O)c1cccc([N+](=O)[O-])c1` [Example 15, N-[5-(5,6-Difluoro-1H-indol-2-yl)-2-methoxy-phenyl]-3-nitro-benzenesulfonamide]: the melting point lay within 228 to 230 °C. At human 15-LO, the IC50 came out at 49 nM. 124 nM corresponded to half-maximal inhibition in series [1] (IC50).
In the case of `COc1ccc(-c2cc3cc(F)c(F)cc3[nH]2)cc1NCc1cccc(O)c1` [Example 11, 3-{[5-(5,6-Difluoro-1H-indol-2-yl)-2-methoxy-phenylamine]-methyl}-phenol], the results for the 50% inhibitory concentration (IC50) (against human 15-LO; in series [1]) were 106 nM and 24 nM, respectively.
`COc1ccc(-c2cc3cc(F)c(F)cc3[nH]2)cc1NC(=S)Nc1ccc(F)c(F)c1` [Example 39, 1-[5-(5,6-Difluoro-1H-indol-2-yl)-2-methoxy-phenyl]-3-(3,4-difluoro-phenyl)-thiourea] displayed a melting point of 183 to 186 °C. The compound further yielded an IC50 against human 15-LO of 36 nM. In addition, the IC50 in series [1] was 17 nM.
`COc1ccc(-c2cc3ccccc3[nH]2)cc1NC(=S)Nc1cc(Cl)cc(Cl)c1` [Example 2, 1-(3,5-Dichloro-phenyl)-3-[5-(1H-indol-2-yl)-2-methoxy-phenyl]-thiourea] yielded a melting point of 199 to 201 °C. This compound also had an IC50 against human 15-LO of 29 nM. Further, the half-maximal inhibitory concentration (IC50) in series [1] amounted to 11 nM.
The compound `COc1ccc(-c2cc3ccccc3[nH]2)cc1N` [Example 1, 5-(1H-Indol-2-yl)-2-methoxy-phenylamine] displayed a melting point of 208 to 209 °C. Besides, the half-maximal inhibitory concentration (IC50) against human 15-LO was determined as 23 nM. The IC50 in series [1] was 113 nM.
As to `COc1ccc(-c2cc3cc(F)c(F)cc3[nH]2)cc1Nc1cccc(OCc2ccccc2)c1` [Example 53, [5-(5,6-Difluoro-1H-indol-2-yl)-2-methoxy-phenyl]-(3-benzyloxy-phenyl)-amine], the half-maximal inhibitory concentration (IC50) on human 15-LO is 22 nM; in series [1], 16 nM.
`COc1ccc(-c2cc3cc(F)c(F)cc3[nH]2)cc1NC(=S)N[C@@H](COC(C)(C)C)C(=O)OC(C)(C)C` [Example 36, (S)-3-tert-Butoxy-2-{3-[5-(5,6-Difluoro-1H-indol-2-yl)-2-methoxy-phenyl]-thioureido}-propionic acid tert-butyl ester] displayed a melting point of 111 to 114 °C. Besides, testing at 10 µM against human 15-LO gave an inhibition of 51%.
For `CCCCCCCCCCCCS(=O)(=O)Nc1cc(-c2nc3cc(Cl)c(Cl)cc3[nH]2)ccc1OC` [Example 21, Dodecane-1-sulfonic acid [5-(5,6-dichloro-1H-benzoimidazol-2-yl)-2-methoxy-phenyl]-amide], in that order: 203 to 204 °C and 65%.
As for `COc1ccc(-c2cc3ccccc3[nH]2)cc1NC(N)=S` [Example 26, [5-(1H-Indol-2-yl)-2-methoxy-phenyl]-thiourea], the melting point is 188 to 191 °C. Moreover, half-maximal inhibition against human 15-LO (IC50) was put at 258 nM.

For orientation: IC50 means the concentration at which inhibition is half-maximal. Read a low IC50 as inhibition by little substance. In general, melting point refers to the temperature, or range, at which the solid turns liquid. Usually inhibition stands for the relative decrease from the control value, in per cent. Read a low inhibition as a response near the control.

(Values after patent publication US6858739B2, “Indole and benzimidazole 15-lipoxygenase inhibitors” (Warner-Lambert Company, priority 2000, dated 2005).)
